Patent US20210162091A1, “WASH-DURABLE, FLUID ABSORBENT SUBSTRATE WITH ANTIMICROBIAL PROPERTIES AND/OR IMPROVED WASHABILITY, AND HYGIENE PRODUCT SUCH AS REUSABLE SANITARY NAPKIN” (Livinguard AG, priority 2015, published 2021)

What was measured:
[1] = system: bacteria (Escherichia coli, Staphylococcus aureus, Pseudomonas aeruginosa, and Salmonella enterica); experiment: Antimicrobial performance against bacteria (AATCC 100:2012, summary in words); type: cell-based; conditions: single agent, 6% o.w.f. chemical
Protocol: (§1) All microbiological tests were performed with cultures of the bacteria Escherichia coli American Type Culture Collection (ATCC) 25922, Staphylococcus aureus ATCC 6538, Pseudomonas aeruginosa ATCC 15442, Salmonella enterica ATCC 10708, and of the fungi Candida albicans ATCC 10231, and Aspergillus niger ATCC 16404.

[2] = system: fungi (Candida albicans and Aspergillus niger); experiment: Antimicrobial performance against fungi (AATCC 100:2012, summary in words); type: cell-based; conditions: single agent, 6% o.w.f. chemical
Protocol: as §1

| Molecule | Efficiency for killing bacteria ([1]; adhered to polyester) | Efficiency for killing fungi ([2]; adhered to polyester) | Efficiency for killing bacteria ([1]; adhered to cotton) | Efficiency for killing fungi ([2]; adhered to cotton) |
| --- | --- | --- | --- | --- |
| CCCCCCCCCCCCCCCCCC[N+](C)(C)CCC[Si](OC)(OC)OC [dimethyloctadecyl[3-(trimethoxysilyl)propyl] ammonium chloride] | about equally efficient in killing bacteria | not efficient for killing fungi |  |  |
| CCCC1COC(Cn2cncn2)(c2ccc(Cl)cc2Cl)O1 (stereo not drawn) [propiconazole, reference compound] | about as efficient against bacteria as silver and quaternary ammonium organosilane | works well against fungi | not efficient for killing bacteria | efficient for killing fungi |
| polyhexamethylene biguanide [PHMB] |  |  | about equally efficient for killing bacteria | perform poorly |
| silver | about equally efficient in killing bacteria | not efficient for killing fungi | about equally efficient for killing bacteria | perform poorly |
